# According to article PMC3086427 (Clinical cancer research : an official journal of the …, 2008):
# Like-named read-outs stand apart in the source and are kept apart here.
# Legend:
# [1] = Plasma pharmacokinetics of EKB-569 and its N-desmethyl metabolite at the MTD
# phosphorylated EGFR = conditions: 25 mg EKB-569 with full-dose Irinotecan and infusional 5-FU; cited from earlier work
# [2] = p.o., continuous schedule, cited from earlier work
# clinical = conditions: human, in vivo, po; for half-life: T1/2
# [3] = in vivo
# [4] = cited from earlier work
# colorectal cancer = conditions: 5-FU chemotherapy regimens, advanced-stage CRC; cited from earlier work
smiles,measurement,setting,value
CCOc1cc2ncc(C#N)c(Nc3ccc(F)c(Cl)c3)c2cc1NC(=O)/C=C/CN(C)C [EKB-569],Cl/F (oral clearance),"[1]; day 8, 50 mg EKB-569 p.o. daily with 1,000 mg/m^2 capecitabine, mean ± SD",57 ± 24 L/h
same,coefficient of variation values for Cmax and AUC (intersubject variability),"[1]; day 8, MTD",< 40%
same,half-life,"[1]; human, plasma, po",16.6 ± 3.7 h
same,inhibition of phosphorylated EGFR and downstream signaling pathways in skin and tumor samples,phosphorylated EGFR,complete inhibition
same,patients who required a dose reduction of the agent at the MTD,"EKB-569 50 mg daily and capecitabine 1,000 mg/m^2 twice daily",four
same,MTD of EKB-569 combined with capecitabine,"daily, p.o., 21-day cycle, with capecitabine 1,000 mg/m^2 twice daily",50 mg
same,"well-tolerated dose, single agent",[2]; patients with advanced solid tumors,up to 75 mg per day
same,"principal toxicities, single agent",[2],diarrhea and skin rash
"CCCCCOC(=O)Nc1nc(=O)n([C@@H]2O[C@H](C)[C@@H](O)[C@H]2O)cc1F [capecitabine, reference compound]",dose reductions of the agent secondary to diarrhea,"human, in vivo",60%
same,MTD of capecitabine combined with EKB-569,"twice daily for 14 days of a 21-day cycle, with EKB-569 50 mg daily","1,000 mg/m^2"
same,half-life,clinical,0.52 ± 0.17 h
same,Tmax,clinical,1 h
same,mean terminal half-life,[3]; human,half an hour
same,time at which Cmax was observed after p.o. administration,"[3]; human, po",1 h
same,"difference of pharmacokinetic variables, monotherapy vs combination therapy",[3],no statistically significant difference
CCOc1cc2ncc(C#N)c(Nc3ccc(F)c(Cl)c3)c2cc1NC(=O)/C=C/CNC [N-desmethyl EKB-569],AUC,"[1]; human, in vivo, po",64.4 ± 43.3 ng·h/mL
same,Cmax,"[1]; human, in vivo, po",4.2 ± 3.2 ng/mL
same,T1/2,"[1]; human, in vivo, po",24.1 ± 9.2 h
same,Tmax,"[1]; human, in vivo, po",3.5 (2–6) h
"C[C@H]1O[C@@H](n2cc(F)c(=O)[nH]c2=O)[C@H](O)[C@@H]1O [5′-DFUR, 5′-deoxy-5-fluorouridine]",half-life,clinical,0.72 ± 0.14 h
same,Tmax,clinical,2 h
same,increase in AUC[0-t] in combination with EKB-569 versus capecitabine alone,[3]; human,28%
same,increase in AUC[0-∞] in combination with EKB-569 versus capecitabine alone,[3]; human,31%
"O=c1[nH]cc(F)c(=O)[nH]1 [5-FU, 5-fluorouracil]",increase in 5-FU exposure with continual administration of capecitabine,"[4]; alone or with other anticancer agents, from no increase upward",≤ 83%
same,interpatient variability of 5-FU AUC,"[4]; continued daily dosing of capecitabine, day 14",85%
same,AUC of 5-FU on day 14 higher than after a single dose,[4]; continued daily dosing of capecitabine,34%
same,increase in AUC[0-t] in combination with EKB-569 versus capecitabine alone,[3]; human,88%
same,increase in AUC[0-∞] in combination with EKB-569 versus capecitabine alone,[3]; human,81%
same,T1/2,"[3]; human, po",0.73 ± 0.17 h
same,Tmax,"[3]; human, po",2.00 (0.50–4.00) h
same,objective response rate,colorectal cancer,~ 20%
